Measured values reported in US20180214430A1, “Selective Inhibitors Of i-NOS For Use Against Viral Infection” (priority 2015, published 2018).
Entries after “also recorded” stand apart in the source; their conditions may differ. Where two headings read alike, the source gives them in different places. Marks after values point to notes of the source that are not given here.

What was measured:
RSV [1] = assay: RSV replication in A549 epithelial cell cultures (number of infected cells, immunofluorescence); format: cell-based, respiratory syncytial virus (A2) Long strain; details: for IC50: read-out: IC50 on RSV replication (concentration needed to give a 50% reduction in number of infected cells/well)
influenza virus = assay: microbe, parasite or virus in culture; format: cell-based, Human influenza virus A/Puerto Rico/8/34 (H1N1)
A549 cells = assay: Cytotoxicity assay (LDH in cell culture supernatant); format: cell-based, human; details: uninfected and RSV infected A549 cells, concentration series
Protocol: To determine the level of cell damage following infection, 50 μl of the culture supernatant from each well were transferred to the corresponding well in 96 well microtitre plate. The LDH activity of the supernatant was measured by a LDH Assay kit, according to the manufacturer's instructions (Sigma, UK). 100 μl of LDH Assay solution was added to each well and the plate was incubated for 30 min at room temperature. After incubation, the absorbance was measured at two wavelengths, 490 nm (measurement) and 690 nm (reference), using a microplate reader (BioRad Laboratories, Hercules, Calif., USA). The percent LDH release was calculated by measuring the LDH content of lysed cells that remained attached to the plate.
To determine whether the concentration series of 1400 W we used was toxic to the A549 cells, and to eliminate the possibility that the reduction in viral antigen was due to toxicity, the concentration of lactate dehydrogenase (LDH) in the cell culture supernatant was measured. LDH is an enzyme that is only released by cells when the cell membrane integrity is reduced. Therefore the concentration of LDH in the cell culture supernatant is directly correlated to cell death.

[2] = system: NO production by RSV infected A549 epithelial cells; assay: Nitric oxide released into cell culture supernatant of RSV infected cells (chemiluminescence); format: cell-based, human; details: for NO production by these cells: epithelial cells, qualitative statement
RSV [3] = assay: Mouse infection model: viral load of the lungs (plaque assay); format: in vivo, balb/c mice; details: 10 mg/kg i.p. every 12 h
total lung NOS activity = assay: Mouse infection model: nitrite concentration of lung homogenate; format: in vivo, balb/c mice; details: 10 mg/kg i.p. every 12 h
[4] = system: respiratory syncytial virus; details: mouse model of respiratory syncytial virus; cited from earlier work
[5] = epithelial cells, qualitative statement
[6] = A549 cells, RPMI (1.15 mM L-Arg), after 24 h, ± 95% CI
[7] = RSV infected mice, day 3, 10 mg/kg
[8] = RSV infected mice, day 3, listed as 1400 W, 10 mg/kg

CC(=O)N[C@H](C(=O)O)C(C)(C)SN=O (racemic) [SNAP, S-nitroso-N-acetylpenicillamine]
viral (RSV) replication (RSV [1]; [5]): did not affect

CC(=N)NCc1cccc(CN)c1 [1400W]
number of RSV-infected cells (RSV [1]; A549 cells, 24 hrs, concentrations above 1 mM): significantly decreased
IC50 (RSV [1]; [6]): 1100 ± 500 µM
viral (RSV) replication (RSV [1]; [5]): strongly inhibited
IC50 (influenza virus; A549 cells, DMEM (0.35 mM L-Arg), after 24 h, ± 95% CI, read-out: IC50 on influenza virus replication (concentration needed to give a 50% reduction in number of infected cells/well)): 3700 ± 1000 µM
IC50 (influenza virus; A549 cells, RPMI (1.15 mM L-Arg), after 24 h, ± 95% CI, read-out: IC50 on influenza virus replication (concentration needed to give a 50% reduction in number of infected cells/well)): 4600 ± 900 µM
toxicity: amount of LDH in the cell culture supernatant (A549 cells): not affected; also recorded: not toxic
amount of NO released into the cell culture supernatant ([2]; RSV infected A549 cells, concentrations above 1 mM): significant decrease
NO production by these cells [2]: reduction
Log10 pfu per gram lung (RSV [3]; Mock infected mice, day 3): <0.18 Log10 pfu per gram lung
Log10 pfu per gram lung (RSV [3]; Mock infected mice, day 5): <0.18 Log10 pfu per gram lung
Log10 pfu per gram lung (RSV [3]; [7]): 0.51 ± 0.17 Log10 pfu per gram lung
Log10 pfu per gram lung (RSV [3]; [8]): significantly lower
Log10 pfu per gram lung (RSV [3]; RSV infected mice, day 5): 1.18 ± 0.92 Log10 pfu per gram lung
Nitrite lung homogenate (total lung NOS activity; Mock infected mice, day 3): 26.0 (5.4) uM
Nitrite lung homogenate (total lung NOS activity; Mock infected mice, day 5): 21.6 (3.0) uM
Nitrite lung homogenate (total lung NOS activity; [7]): 16.7 (1.9)* uM
Nitrite lung homogenate (total lung NOS activity; [8]): significantly reduced
Nitrite lung homogenate (total lung NOS activity; RSV infected mice, day 5): 23.7 (3.3) uM

CC1CCN=C(N)S1 (stereo not drawn) [AMT, 2-amino-5,6-dihydro-6-methyl-4H-1,3-thiazine]
viral titres [4]: increase

COc1ccnc(CCc2nc3ncccc3[nH]2)c1 [BYK191023]
viral (RSV) replication (RSV [1]; [5]): strongly inhibited
IC50 (RSV [1]; human respiratory syncytial virus, A549 cells, RPMI (1.15 mM L-Arg), after 24 h, ± 95% CI): 1100 ± 500 µM
IC50 (influenza virus; unidentified influenza virus, A549, 24 h, read-out: IC50 on influenza virus replication (concentration needed to give a 50% reduction in number of infected cells/well), A549 cells, DMEM (0.35 mM L-Arg), after 24 h, ± 95% CI): 4800 ± 400 µM
IC50 (influenza virus; unidentified influenza virus, A549, 24 h, read-out: IC50 on influenza virus replication (concentration needed to give a 50% reduction in number of infected cells/well), A549 cells, RPMI (1.15 mM L-Arg), after 24 h, ± 95% CI): 4300 ± 800 µM
NO production by these cells [2]: reduction

COC(=O)[C@@H](N)CCCNC(=N)N[N+](=O)[O-] [L-NAME]
IC50 on RSV replication (concentration needed to give a 50% reduction in number of infected cells/well) (RSV [1]; [6]): No effect
viral (RSV) replication (RSV [1]; [5]): did not inhibit; also recorded: not to inhibit
IC50 on influenza virus replication (concentration needed to give a 50% reduction in number of infected cells/well) (influenza virus; [6]): No effect

N=C(N)NCCC[C@H](N)C(=O)O [L-arginine]
IC50 on RSV replication (concentration needed to give a 50% reduction in number of infected cells/well) (RSV [1]; [6]): No inhibitory

Cl.N=c1c[n+](N2CCOCC2)[n-]o1 [SIN-1, 3-morpholinosydnonimine hydrochloride]
viral (RSV) replication (RSV [1]; [5]): did not affect

NCCCNCCCCN(CCCN)/[N+]([O-])=N/O [Spermine (NONOate)]
viral (RSV) replication (RSV [1]): inhibit
IC50 (RSV [1]): 1500 ± 500 µM
IC50 (influenza virus; read-out: IC50 on influenza virus replication (concentration needed to give a 50% reduction in number of infected cells/well)): 600 ± 400 µM
